Consider four molecules from US12351606B2, “Compositions and related methods for modulating transcriptional activation by incorporating gag motifs upstream of core promoter elements” (UNIVERSITY OF VIRGINIA PATENT FOUNDATION, priority 2007, dated 2025).

In data set [1] the test system is BY-2 cells. Description: GUS reporter activity of tetramer promoter constructs in transformed BY-2 cells with or without MeJA. The conditions noted are these: tetramer upstream of minimal CaMV 35S -46 promoter. It counts as cell-based, N. tabacum. The method, then:
Promoter constructs were produced by annealing phosphorylated upper- and lower-strand oligonucleotides to create various elements containing a SpeI restriction site at the 5′ end and an XbaI restriction site at the 3′ end. These were introduced into MS23-β-glucuronidase (“GUS”) between the SpeI and XbaI sites.
Ten colonies of transformed Agrobacteria (A. tumefaciens) containing the promoter construct were picked from a fresh plate and inoculated into 10 ml YEB, containing 50 mg/l rifampicin and 50 mg/l kanamycin, in a 50 ml flask. Cell cultures were incubated overnight at 28° C. with shaking, an overnight culture (1 ml) was taken. Cultures were diluted with YEB plus antibiotics so that the OD600 was approximately 0.3. Agrobacteria were grown at 28° C. with shaking until the OD600 was about 0.6. Cells were pelleted by centrifugation. Supernatants were removed and agrobacteria were resuspended in 0.5 ml MS. Approximately 3 ml of wild type BY-2 cells were introduced into Petri dishes. Approximately 100 μl of undiluted Agrobacteria or 1:10 or 1:100 diluted agrobacteria were mixed with the BY-2 cells to infect them. After 2 days, the BY-2 cells were washed with 30 ml MS medium and left for 30 min before the supernatant was removed. Approximately 2 ml aliquots of the transformed BY-2 cells were deposited onto MS plates containing vitamins, 50 mg/l kanamycin, and 500 mg/l cefotaxin. Transformed calli were visible after 3-5 weeks.
Single transformed calli were picked from selection plates and put on fresh MS+agar plates containing vitamins, 50 mg/l kanamycin, and 500 mg/l cefotaxin. Additionally, small amounts of calli were deposited into micro-wells (Corning 6 well culture cluster) with 6 ml MS medium containing vitamins, kanamycin, and cefotaxin. Samples in the micro-wells were grown at 28° C. for 4 days with shaking. Approximately 1 ml cells from the micro-wells were subcultured to new micro-wells with 5 ml fresh MS medium with vitamins, 50 mg/l kanamycin, and 500 mg/l cefotaxin. BY-2 cells were grown at 28° C. for 3 days with shaking. Then ten independent lines were chosen and 0.4 ml cells from each of the liquid cultures were subcultured to a 250 ml Erlenmeyer flask with 45 ml MS medium, vitamins, 50 mg/l kanamycin, and 500 mg/l cefotaxin. Cells were grown at 28° C. for 2 days with shaking. Then 10 ml cells from each flask were introduced into new 250 ml Erlenmeyer flasks with 40 ml MS medium containing vitamins without hormones (−2.4D) and antibiotics. The BY-2 cells were grown at 28° C. for 1 day with shaking. After 1 day BY-2 cells were treated with different amounts of methyl jasmonate (MeJA).
(§1) Histochemical staining for GUS activity and GUS activity determination was performed as described by Jefferson (1987).
An improved method for the analysis of promoter activity in BY-2 cells was developed. Transformed BY-2 calli were grown on selection plates and subsequently grown as liquid cultures in MS medium. For each individual construct ten independent lines were chosen. Approximately 0.5 ml cells from each of the liquid cultures were subcultured together in MS medium that contain vitamins, kanamycin, and cefotaxin. After 2 days, the cells were diluted in fresh MS medium containing vitamins without hormones (−2.4D) to reduce any stress response induced by cell density, and to deplete the medium of auxin. It has been shown previously that high auxin levels in the medium decreased the extent of MeJA-induced NtPMT:GUS expression (Xu and Timko, 2004). After 1 day BY-2 cells were treated with 100 μM MeJA. After 48 hours cell samples were taken, and were used to determine the GUS activity. For statistical analysis, each experiment was repeated four times and to avoid day to day variation in the GUS activities, and the data were normalized. These cell culture conditions ensured both a rapid and uniform response to MeJA.

The test system of data set [2] is tobacco plants. The data set is described as follows: Histochemical GUS staining of transgenic tobacco plants after wounding or MeJA. It counts as in vivo, N. tabacum. The conditions noted are these: tetramer constructs, GUS staining after 72 hours. The method, then: as §1
Ten colonies of the transformed Agrobacteria containing a promoter construct of interest were picked from a fresh plate and inoculated into 10 ml YEB, containing 50 mg/l rifampicin, and 50 mg/l kanamycin, in a 50 ml flask. Cell cultures were incubated overnight at 28° C. with shaking. Approximately 1 ml of overnight culture was taken. Cultures were diluted with 50 ml YEB plus antibiotics so that the OD600 was approximately 0.3. Agrobacteria were grown at 28° C. with shaking until the OD600 was approximately 0.6. The cells were then pelleted by centrifugation. Supernatants were removed and Agrobacteria were resuspended in 40 ml fresh YEB by pipetting with a 1 ml tip. Wild type tobacco leaves were cut into small pieces under sterile conditions and put in a 50 ml beaker. Agrobacteria solution was poured onto the tobacco leaves and the mixture was swirled together and left for 5 min for the Agrobacteria to infect the leaves. Infected leaves were put on MS plates with filter paper (to limit Agrobacteria grow). […] Plates were left for 2 days in the dark. After 2 days the tobacco pieces were transferred onto MS plates containing 1 mg/l 6 BA, 500 mg/l cefotaxin and 100 mg/l kanamycin. Samples were left in the light at 28° C. […]

Take “G Box-like element: SEQ ID NO:2 (GCACGTTG); tetramer in front of minimal CaMV 35S -46 promoter (expressed or natural sequence; listed as Nicotiana tabacum)”: the “promoter activity / promoter strength” value in data set [1] is reported as “Low promoter activity”. The “response of GUS expression to MeJA treatment” value (“response of GUS expression” for short) in data set [1] (100 μM MeJA, 48 hours) is reported as “characteristic reduction after MeJA exposure”.

For “GCC-like box: SEQ ID NO:4; tetramer in front of minimal CaMV 35S -46 promoter (DNA TGCGCCCTCCACTCCTCGGTGTCCA; expressed or natural sequence; listed as Nicotiana tabacum)”, the “promoter activity / promoter strength” value in data set [1] was “only low level promoter activity”. Further, the “response of GUS expression” value in data set [1] (100 μM MeJA, 48 hours) was “characteristic reduction in every line tested after MeJA addition”.

With “AT-rich element: SEQ ID NO:3; tetramer in front of minimal CaMV 35S -46 promoter (DNA TAATGAATTTTTAACTATTATATTATAT; expressed or natural sequence; listed as Nicotiana tabacum)”, the “promoter activity / promoter strength” value in data set [1] was “only low level promoter activity”. Besides, in data set [1] (100 μM MeJA, 48 hours), the “response of GUS expression” value was “characteristic reduction in promoter activity after MeJA addition”.

B1: GAG motif: SEQ ID NO:1 regulatory region of NtPMT1a promoter: G-box like, AT-rich and GCC-like box elements; tested as tetramer before CaMV 35S -46::GUS (nucleic acid, listed as Nicotiana tabacum)
DNA: CTAACCCTGCACGTTGTAATGAATTTTTAACTATTATATTATATCGAGTTGCGCCCTCCACTCCTCGGTGTCCA
modifications: expressed or natural sequence
notes: tested as tetramer before CaMV 35S -46::GUS
For B1, the “promoter activity / promoter strength” value in data set [1] is given as “much stronger than the G Box-GCC element”. Besides, the “MeJA inducibility of GUS expression (relative fold inducibility)” value in data set [1] (100 μM MeJA, 48 hours) is listed as “approximately 35 fold”. Moreover, in data set [2] (25 μM MeJA), the “MeJA-inducible expression in roots” value is reported as “showed inducibility by MeJA”. Besides, the “wound-inducible expression in roots” value in data set [2] (wounding of roots or leaves) is reported as “can direct wound-inducible expression”.
